In US6727205B2, “Plant growth regulators and methods for control and/or suppression of annual bluegrass” (BASF Aktiengesellschaft, priority 2001, dated 2004):

How the values were obtained:
[1] = test system: annual bluegrass (Poa Annua); experiment: Percent control of annual bluegrass (browning, necrosis, melt-down, plant death); assay type: in vivo
Protocol: (§1) In this evaluation, annual bluegrass (Poa Annua) was grown, and the compounds were applied at various growth stages of the annual bluegrass as depicted in Table Ia using a randomized complete block design of four replications with ten treatments including one untreated control. The compounds were applied using water as the carrier. The results shown in Table Ib depict control of annual bluegrass, which includes browning, necrosis, melt-down and plant death. The results shown in Table Ic depict the amount of seeds on the plants and on the ground for the various treatments.

[2] = test system: annual bluegrass (Poa Annua); experiment: Seed/biomass effect on annual bluegrass at Day 212; assay type: in vivo; details: for Biomass Dry Weight: control (none) 251
Protocol: as §1

**Q.** What does the source list for `CP(=O)(O)CCC(N)C(=O)O` (centres unmarked) [Glufosinate-Ammonium, 2-amino-4-(hydoxymethylphosphinyl)butanoic acid]?
**A.** % Control at Days After First Treatment (DAT) ([1]; 17 DAT, application time A (seedling, day 1), rate 0.375 lb/A (420)): 80%; % Control at Days After First Treatment (DAT) ([1]; 43 DAT, application time A (seedling, day 1), rate 0.375 lb/A (420)): 80%; % Control at Days After First Treatment (DAT) ([1]; 43 DAT, application time C (tillering, day 35), rate 0.375 lb/A (420)): 10%; % Control at Days After First Treatment (DAT) ([1]; 77 DAT, application time A (seedling, day 1), rate 0.375 lb/A (420)): 74%; % Control at Days After First Treatment (DAT) ([1]; 77 DAT, application time C (tillering, day 35), rate 0.375 lb/A (420)): 96%; % Control at Days After First Treatment (DAT) ([1]; 151 DAT, application time A (seedling, day 1), rate 0.375 lb/A (420)): 33%; % Control at Days After First Treatment (DAT) ([1]; 151 DAT, application time C (tillering, day 35), rate 0.375 lb/A (420)): 74%; % Control at Days After First Treatment (DAT) ([1]; 151 DAT, application time E (flowering, day 136), rate 0.375 lb/A (420)): 93%; % Control at Days After First Treatment (DAT) ([1]; 172 DAT, application time A (seedling, day 1), rate 0.375 lb/A (420)): 3%; % Control at Days After First Treatment (DAT) ([1]; 172 DAT, application time C (tillering, day 35), rate 0.375 lb/A (420)): 45%; % Control at Days After First Treatment (DAT) ([1]; 172 DAT, application time E (flowering, day 136), rate 0.375 lb/A (420)): 65%; % Control at Days After First Treatment (DAT) ([1]; 204 DAT, application time A (seedling, day 1), rate 0.375 lb/A (420)): 0%; % Control at Days After First Treatment (DAT) ([1]; 204 DAT, application time C (tillering, day 35), rate 0.375 lb/A (420)): 18%; % Control at Days After First Treatment (DAT) ([1]; 204 DAT, application time E (flowering, day 136), rate 0.375 lb/A (420)): 8%; Seeds on Ground ([2]; application time E, control (none) 30): 34 g/5 sq ft; Seeds on Plant ([2]; application time E, control (none) 37): 32 g/5 sq ft; Biomass Dry Weight ([2]; application time E): 184 g/5 sq ft; Seeds on Ground ([2]; application time E, control (none) 669): 816 seeds/0.3 g; Seeds on Plant ([2]; application time E, control (none) 864): 1000 seeds/0.3 g

**Q.** `CCC(=O)C1=C([O-])CC(C(=O)[O-])CC1=O.[Ca+2]` (centres unmarked) [Prohexadione-Calcium, calsium 3,5-dioxo-4-(1-oxopropyl)cyclohexanecarboxylate] was tested. Which “% Control at Days After First Treatment (DAT)” value (“% Control” below) ([1]; 17 DAT, application time A (seedling, day 1), rate 0.125 lb/A (140)) did it give?
**A.** The value was 0%.

**Q.** And the “% Control” value ([1]; 17 DAT, application times A + B (seedling, days 1 and 15), rate A = 0.125 (140) + B = 0.125 (140) lb/A)?
**A.** The value was 0%.

**Q.** And the “% Control” value ([1]; 43 DAT, application time A (seedling, day 1), rate 0.125 lb/A (140))?
**A.** Its value is 0%.

**Q.** What about the “% Control” value ([1]; 43 DAT, application time C (tillering, day 35), rate 0.125 lb/A (140)) of the same compound?
**A.** The value was 0%.

**Q.** What about the “% Control” value ([1]; 43 DAT, application times A + B (seedling, days 1 and 15), rate A = 0.125 (140) + B = 0.125 (140) lb/A) of the same compound?
**A.** Its value is 0%.

**Q.** And the “% Control” value ([1]; 77 DAT, application time A (seedling, day 1), rate 0.125 lb/A (140))?
**A.** Its value is 0%.

**Q.** And the “% Control” value ([1]; 77 DAT, application time C (tillering, day 35), rate 0.125 lb/A (140))?
**A.** The value was 0%.

**Q.** And the “% Control” value ([1]; 77 DAT, application times A + B (seedling, days 1 and 15), rate A = 0.125 (140) + B = 0.125 (140) lb/A)?
**A.** The value was 0%.

**Q.** And the “% Control” value ([1]; 77 DAT, application times C + D (tillering, days 35 and 51), rate C = 0.125 (140) + D = 0.125 (140) lb/A)?
**A.** The value was 0%.

**Q.** What about the “% Control” value ([1]; 151 DAT, application time A (seedling, day 1), rate 0.125 lb/A (140)) of the same compound?
**A.** Its value is 0%.

**Q.** What about the “% Control” value ([1]; 151 DAT, application time C (tillering, day 35), rate 0.125 lb/A (140)) of the same compound?
**A.** Its value is 0%.

**Q.** What about the “% Control” value ([1]; 151 DAT, application times A + B (seedling, days 1 and 15), rate A = 0.125 (140) + B = 0.125 (140) lb/A) of the same compound?
**A.** The value was 0%.

**Q.** And the “% Control” value ([1]; 151 DAT, application times C + D (tillering, days 35 and 51), rate C = 0.125 (140) + D = 0.125 (140) lb/A)?
**A.** The value was 0%.

**Q.** What about the “% Control” value ([1]; 172 DAT, application time A (seedling, day 1), rate 0.125 lb/A (140)) of the same compound?
**A.** Its value is 0%.

**Q.** What about the “% Control” value ([1]; 172 DAT, application time C (tillering, day 35), rate 0.125 lb/A (140)) of the same compound?
**A.** The value was 0%.

**Q.** What about the “% Control” value ([1]; 172 DAT, application time F (flowering to soft dough, day 155), rate 0.250 lb/A (280)) of the same compound?
**A.** The value was 60%.

**Q.** And the “% Control” value ([1]; 172 DAT, application times A + B (seedling, days 1 and 15), rate A = 0.125 (140) + B = 0.125 (140) lb/A)?
**A.** The value was 0%.

**Q.** And the “% Control” value ([1]; 172 DAT, application times C + D (tillering, days 35 and 51), rate C = 0.125 (140) + D = 0.125 (140) lb/A)?
**A.** Its value is 0%.

**Q.** And the “% Control” value ([1]; 204 DAT, application time A (seedling, day 1), rate 0.125 lb/A (140))?
**A.** Its value is 0%.

**Q.** And the “% Control” value ([1]; 204 DAT, application time C (tillering, day 35), rate 0.125 lb/A (140))?
**A.** The value was 0%.

**Q.** And the “% Control” value ([1]; 204 DAT, application time F (flowering to soft dough, day 155), rate 0.250 lb/A (280))?
**A.** Its value is 95%.

**Q.** And the “% Control” value ([1]; 204 DAT, application times A + B (seedling, days 1 and 15), rate A = 0.125 (140) + B = 0.125 (140) lb/A)?
**A.** Its value is 0%.

**Q.** And the “% Control” value ([1]; 204 DAT, application times C + D (tillering, days 35 and 51), rate C = 0.125 (140) + D = 0.125 (140) lb/A)?
**A.** The value was 0%.

**Q.** And the “Seeds on Ground” value ([2]; application time F, prohexadione-calcium treatment, control (none) 30)?
**A.** The value was 50 g/5 sq ft.

**Q.** And the “Seeds on Plant” value ([2]; application time F, prohexadione-calcium treatment, control (none) 37)?
**A.** The value was 34 g/5 sq ft.

**Q.** What about the “Biomass Dry Weight” value ([2]; application time F, prohexadione-calcium treatment) of the same compound?
**A.** Its value is 188 g/5 sq ft.

**Q.** And the “Seeds on Ground” value ([2]; application time F, prohexadione-calcium treatment, control (none) 669)?
**A.** Its value is 583 seeds/0.3 g.

**Q.** What about the “Seeds on Plant” value ([2]; application time F, prohexadione-calcium treatment, control (none) 864) of the same compound?
**A.** The value was 822 seeds/0.3 g.
